molecular target: T1, P2X7 receptor (Homo sapiens, UniProt Q99572); assay: IL-1β release assay in differentiated THP-1 cells stimulated with BzATP (Example 9); format: cell-based; parameters: inhibition: dose or concentration left out as unconfirmed; details: 0.1 μM compound; differentiated THP-1 cells, BzATP 250 uM; "*" class symbols; read-out: IL-1β % Inhib. ("*" symbols: at 0.1 μM)
T1 construct: host or cells: THP-1 cells differentiated with LPS and IFN-γ
T1 sequence (Q99572 1-595): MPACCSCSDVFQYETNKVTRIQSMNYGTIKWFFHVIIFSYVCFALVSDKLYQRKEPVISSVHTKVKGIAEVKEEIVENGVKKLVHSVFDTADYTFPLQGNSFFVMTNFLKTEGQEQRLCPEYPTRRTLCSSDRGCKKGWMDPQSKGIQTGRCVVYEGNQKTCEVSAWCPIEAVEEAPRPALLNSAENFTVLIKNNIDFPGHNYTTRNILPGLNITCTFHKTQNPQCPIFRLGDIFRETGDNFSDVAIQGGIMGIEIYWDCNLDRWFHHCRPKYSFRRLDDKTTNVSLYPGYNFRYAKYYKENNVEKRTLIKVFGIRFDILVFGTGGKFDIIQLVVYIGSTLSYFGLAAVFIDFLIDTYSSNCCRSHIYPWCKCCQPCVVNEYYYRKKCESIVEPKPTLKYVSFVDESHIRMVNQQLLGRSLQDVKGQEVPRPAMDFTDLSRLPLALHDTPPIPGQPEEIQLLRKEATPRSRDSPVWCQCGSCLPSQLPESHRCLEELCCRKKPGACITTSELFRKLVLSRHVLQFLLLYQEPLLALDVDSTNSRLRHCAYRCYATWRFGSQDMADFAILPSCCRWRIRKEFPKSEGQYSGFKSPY
Outline: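 THP-1 cells differentiated 16 h with LPS and IFN-γ (100 ng/mL each), re-primed 2 h with LPS, then compound-pretreated 30 min before 250 uM BzATP for 45 min. Supernatant IL-1β quantified by ELISA; background-adjusted percent inhibition fitted to four-parameter logistic for IC50.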

Inhibition at 0.1 µM, 0 to 25%:
COc1ccc(CC(=O)Nc2cccc3c(=O)n(Cc4ccc(OC(F)(F)F)cc4)ccc23)c(OC)c1 [Compound 1601]

same assay, conditions: 0.1 μM compound; differentiated THP-1 cells, BzATP 250 uM; '*' class symbols; read-out: IL-1β % Inhib. (asterisk classes, 0.1 μM)

Inhibition at 0.1 µM, 0 to 25%:
COCCn1ccc2c(NC(=O)c3ccc(-c4ccccc4)o3)cccc2c1=O [Compound 1063]
CC1CCC(C(=O)Nc2cccc3c(=O)n(CC(C)(C)C)ccc23)CC1 (centres unmarked) [Compound 1047]

same assay, conditions: 0.1 μM compound; differentiated THP-1 cells, BzATP 250 uM; symbols * to ****; read-out: IL-1β % Inhib. (asterisk symbols: at 0.1 μM)

Inhibition at 0.1 µM, 0 to 25%:
CCOc1ccc(C(=O)Nc2cccc3c(=O)n(CCN4CCOCC4)ccc23)cc1 [Compound 1198]

Inhibition at 0.1 µM, 51 to 75%:
COc1cc(OC)cc(C(=O)Nc2cccc3c(=O)n(Cc4cccnc4)ccc23)c1 [Compound 1346]

same assay, conditions: 0.3 μM compound; differentiated THP-1 cells, BzATP 250 uM; "+" class symbols; read-out: IL-1β % Inhib. @ 0.3 μM

Inhibition at 0.3 µM, 0 to 25%:
CS(=O)(=O)CCn1ccc2c(NC(=O)CC3(O)CCCCCC3)cccc2c1=O [Compound 1625]
CN(C)CCn1ccc2c(NC(=O)Cc3ccc(C(F)(F)F)cc3C(F)(F)F)cccc2c1=O [Compound 1618]
CO[C@](C(=O)Nc1cccc2c(=O)n(CCN(C)C)ccc12)(c1ccccc1)C(F)(F)F [Compound 1616]

Inhibition at 0.3 µM, 26 to 50%:
CS(=O)(=O)CCn1ccc2c(NC(=O)Cc3ccc(Cl)c(Cl)c3)cccc2c1=O [Compound 1632]

Inhibition at 0.3 µM, ≥ 76%:
O=C(Cc1ccc(Cl)c(C(F)(F)F)c1)Nc1cccc2c(=O)n(Cc3ccccn3)ccc12 [Compound 1628, 2-(4-Chloro-3-trifluoromethyl-phenyl)-N-(1-oxo-2-pyridin-2-ylmethyl-1,2-dihydro-isoquinolin-5-yl)-acetamide]

same assay, conditions: 0.3 μM compound; differentiated THP-1 cells, BzATP 250 uM; '+' class symbols; read-out: IL-1β % Inhib. @ 0.3 μM

Inhibition at 0.3 µM, 0 to 25%:
Cc1ccc(C)c(C(=O)Nc2cccc3c(=O)n(CCN4CCOCC4)ccc23)c1 [Compound 1194]
COCCn1ccc2c(NC(=O)c3ccc(OC)cc3C)cccc2c1=O [Compound 1060]
CN(C)CCn1ccc2c(NC(=O)CCc3ccc(S(C)(=O)=O)cc3)cccc2c1=O [Compound 1009]
CCOc1ccccc1CC(=O)Nc1cccc2c(=O)n(CCN(C)C)ccc12 [Compound 1177]
Cc1c(Cl)cccc1C(=O)Nc1cccc2c(=O)n(CCN(C)C)ccc12 [Compound 1172]
Cc1cccc(C(=O)Nc2cccc3c(=O)n(CCN(C)C)ccc23)c1Cl [Compound 1183]
CN(C)CCn1ccc2c(NC(=O)Cc3ccccc3)cccc2c1=O [Compound 1019]
Cc1ccccc1CC(=O)Nc1cccc2c(=O)n(CCN(C)C)ccc12 [Compound 1157]
CN(C)CCn1ccc2c(NC(=O)c3ccc(Cl)cc3Cl)cccc2c1=O [Compound 1138]
COCCn1ccc2c(NC(=O)C3CCC(C)CC3)cccc2c1=O (centres unmarked) [Compound 1061]
Cc1ccccc1C(=O)Nc1cccc2c(=O)n(CC3CCOCC3)ccc12 [Compound 1085]
Cc1cc(C)c(CC(=O)Nc2cccc3c(=O)n(CC(C)(C)C)ccc23)c(C)c1 [Compound 1050]
Cc1cc(Cl)ccc1C(=O)Nc1cccc2c(=O)n(CC3CCOCC3)ccc12 [Compound 1114]
O=C(Cc1csc2ccccc12)Nc1cccc2c(=O)n(CC3CCOCC3)ccc12 [Compound 1119]
CC(C(=O)Nc1cccc2c(=O)n(CCN(C)C)ccc12)c1ccccc1 (centres unmarked) [Compound 1148]
Cc1c(Cl)cccc1C(=O)Nc1cccc2c(=O)n(CC3CCOCC3)ccc12 [Compound 1120]
Cc1cc(C)c(CC(=O)Nc2cccc3c(=O)n(CCN(C)C)ccc23)c(C)c1 [Compound 1036]
Cc1cccc(CC(=O)Nc2cccc3c(=O)n(CC4CCOCC4)ccc23)c1 [Compound 1104]

Inhibition at 0.3 µM, ≥ 76%:
COCCn1ccc2c(NC(=O)CCc3ccccc3Cl)cccc2c1=O [Compound 1069]

same assay, conditions: 0.3 μM compound; differentiated THP-1 cells, BzATP 250 uM; symbols + to ++++; read-out: IL-1β % Inhib. @ 0.3 μM

Inhibition at 0.3 µM, 0 to 25%:
Cc1ccc(CCC(=O)Nc2cccc3c(=O)n(CCN4CCOCC4)ccc23)c(C)c1 [Compound 1241]
CC(C)Cc1ccc(C(=O)Nc2cccc3c(=O)n(CCN4CCOCC4)ccc23)cc1 [Compound 1243]
Cc1cccc(C(=O)Nc2cccc3c(=O)n(Cc4cccnc4)ccc23)c1Cl [Compound 1370]
COCCn1ccc2c(NC(=O)c3cccc4ccccc34)cccc2c1=O [Compound 1312]
COCCn1ccc2c(NC(=O)CCc3cccc(Cl)c3)cccc2c1=O [Compound 1342]
O=C(CCCc1ccccc1)Nc1cccc2c(=O)n(CCN3CCOCC3)ccc12 [Compound 1215]
O=C(Nc1cccc2c(=O)n(Cc3cccnc3)ccc12)c1cc2ccccc2o1 [Compound 1358]
Cc1cccc(CC(=O)Nc2cccc3c(=O)n(CCN4CCOCC4)ccc23)c1 [Compound 1211]
COCCn1ccc2c(NC(=O)c3ccc(OC)c(C)c3)cccc2c1=O [Compound 1340]
CCOc1ccccc1CC(=O)Nc1cccc2c(=O)n(C)ccc12 [Compound 1307]

Inhibition at 0.3 µM, ≥ 76%:
CC(=O)OCCn1ccc2c(NC(=O)CC3CCCCCC3)cccc2c1=O [Compound 1375]
COCCn1ccc2c(NC(=O)CC3(O)CC(C)(C)CC(C)(C)C3)cccc2c1=O [Compound 1393]

same assay, conditions: THP-1; read-out: IL-1β % Inhib.

inhibition, 26 to 50%:
COc1c(C)cc(C(=O)Nc2cccc3c(=O)n(Cc4ccc(OC(F)(F)F)cc4)ccc23)cc1C [Compound 1590]
O=C(Nc1cccc2c(=O)n(CCCN3CCCC3=O)ccc12)C(O)c1ccccc1Cl (centres unmarked) [Compound 1531]
O=C(Nc1cccc2c(=O)n(CCCN3CCCC3=O)ccc12)c1ccc(Cl)cc1Cl [Compound 1505]

inhibition, 0 to 25%:
COCCn1ccc2c(NC(=O)Cc3cccc(OC)c3)cccc2c1=O [Compound 1439]
COc1ccccc1CCC(=O)Nc1cccc2c(=O)n(CC3CCN(C)CC3)ccc12 [Compound 1467]
COc1ccc(C(=O)Nc2cccc3c(=O)n(Cc4ccc(OC(F)(F)F)cc4)ccc23)c(C)c1 [Compound 1548]
Cc1cccc(CCC(=O)Nc2cccc3c(=O)n(CC4CCN(C)CC4)ccc23)c1 [Compound 1488]
Cc1cc(C)c(CC(=O)Nc2cccc3c(=O)n(CCCN4CCCC4=O)ccc23)c(C)c1 [Compound 1498]
CC(C(=O)Nc1cccc2c(=O)n(Cc3ccc(OC(F)(F)F)cc3)ccc12)c1ccccc1 (centres unmarked) [Compound 1570]
O=C(Cc1ccc2c(c1)OCO2)Nc1cccc2c(=O)n(CCCN3CCCC3=O)ccc12 [Compound 1527]
CCOc1ccc(C(=O)Nc2cccc3c(=O)n(CCOC)ccc23)cc1 [Compound 1429]
O=C(Nc1cccc2c(=O)n(Cc3ccc(OC(F)(F)F)cc3)ccc12)c1cccc2c1OCCO2 [Compound 1595]
O=C(Nc1cccc2c(=O)n(CCN3CCOCC3)ccc12)c1ccc2ccccc2c1 [Compound 1411]
CCOc1cccc(C(=O)Nc2cccc3c(=O)n(Cc4ccc(OC(F)(F)F)cc4)ccc23)c1 [Compound 1556]
O=C(Cc1csc2ccccc12)Nc1cccc2c(=O)n(Cc3cccnc3)ccc12 [Compound 1453]
O=C(Nc1cccc2c(=O)n(CCN3CCOCC3)ccc12)c1cccc2ccccc12 [Compound 1410]
COc1ccc(C(=O)Nc2cccc3c(=O)n(CC(C)(C)C)ccc23)cc1C [Compound 1418]
COCCn1ccc2c(NC(=O)c3ccc(C)cc3C)cccc2c1=O [Compound 1426]
O=C(CCc1cccc(Cl)c1)Nc1cccc2c(=O)n(CCCN3CCCC3=O)ccc12 [Compound 1547]
O=C(CCc1ccc(Cl)cc1)Nc1cccc2c(=O)n(Cc3cccnc3)ccc12 [Compound 1455]
Cc1ccc(C)c(C(=O)Nc2cccc3c(=O)n(Cc4ccc(OC(F)(F)F)cc4)ccc23)c1 [Compound 1565]

same assay, conditions: THP-1 cells, BzATP-stimulated IL-1β release, four parameter logistic fit

IC50, > 1000 nM:
CN(C)CCn1ccc2c(NC(=O)CCc3ccc(S(C)(=O)=O)cc3)cccc2c1=O [Compound 1009]
CS(=O)(=O)CCn1ccc2c(NC(=O)CC3(O)CCCCCC3)cccc2c1=O [Compound 1625]
CN(C)CCn1ccc2c(NC(=O)Cc3ccccc3)cccc2c1=O [Compound 1019]
CN(C)CCn1ccc2c(NC(=O)Cc3ccc(C(F)(F)F)cc3C(F)(F)F)cccc2c1=O [Compound 1618]
CO[C@](C(=O)Nc1cccc2c(=O)n(CCN(C)C)ccc12)(c1ccccc1)C(F)(F)F [Compound 1616]

IC50, 77.8 nM:
COCCn1ccc2c(NC(=O)CC3(O)CC(C)(C)CC(C)(C)C3)cccc2c1=O [Compound 1393]

IC50, 86.7 nM:
CC(=O)OCCn1ccc2c(NC(=O)CC3CCCCCC3)cccc2c1=O [Compound 1375]

IC50, 315 nM:
CS(=O)(=O)CCn1ccc2c(NC(=O)Cc3ccc(Cl)c(Cl)c3)cccc2c1=O [Compound 1632]

IC50, 55.9 nM:
O=C(Cc1ccc(Cl)c(C(F)(F)F)c1)Nc1cccc2c(=O)n(Cc3ccccn3)ccc12 [Compound 1628, 2-(4-Chloro-3-trifluoromethyl-phenyl)-N-(1-oxo-2-pyridin-2-ylmethyl-1,2-dihydro-isoquinolin-5-yl)-acetamide]

Reference: US8546579B2, “Bicycloheteroaryl compounds as P2X7 modulators and uses thereof” (Evotec (US) Inc., priority 2006, dated 2013)
